The structures appear in SMILES notation. Read-outs that look alike come from different tables or passages of the source. Positions of bridges follow the written chain, without caps; N, C: chain ends. Non-standard residues stand in square brackets, D forms with d. Residues, ends and D or L forms follow the SMILES beside them. hCit = NC(=O)NCCCC[C@H](N)C(=O)O; Phg = N[C@H](C(=O)O)c1ccccc1; Abu = CC[C@H](N)C(=O)O

Test in all cases: cell-based
Test [1] concerns the target hNav1.7 (Homo sapiens, UniProt Q15858). The test is classed as cell-based. The conditions noted are these: IonWorks Quattro, read-out: IWQ Use Nav1.7. (The patch-clamp technique gives a direct electrical read-out from membranes.)
Test [2] concerns the target hNav1.5 (Homo sapiens, UniProt Q14524).
Test [3] deals with hNav1.3 (Homo sapiens, UniProt Q9NY46). Particulars: IonWorks Quattro, read-out: IWQ Use Nav1.3.
[4] abbreviates: clamped to −110 mV, depolarized to −10 mV, 5 min after compound, n=2.
Setting [5] is: IonWorks Quattro, use-dependent block, hNav1.5, read-out: IWQ Use Nav1.5.

hNav1.7, sequence (Q15858 whole entry, looked up): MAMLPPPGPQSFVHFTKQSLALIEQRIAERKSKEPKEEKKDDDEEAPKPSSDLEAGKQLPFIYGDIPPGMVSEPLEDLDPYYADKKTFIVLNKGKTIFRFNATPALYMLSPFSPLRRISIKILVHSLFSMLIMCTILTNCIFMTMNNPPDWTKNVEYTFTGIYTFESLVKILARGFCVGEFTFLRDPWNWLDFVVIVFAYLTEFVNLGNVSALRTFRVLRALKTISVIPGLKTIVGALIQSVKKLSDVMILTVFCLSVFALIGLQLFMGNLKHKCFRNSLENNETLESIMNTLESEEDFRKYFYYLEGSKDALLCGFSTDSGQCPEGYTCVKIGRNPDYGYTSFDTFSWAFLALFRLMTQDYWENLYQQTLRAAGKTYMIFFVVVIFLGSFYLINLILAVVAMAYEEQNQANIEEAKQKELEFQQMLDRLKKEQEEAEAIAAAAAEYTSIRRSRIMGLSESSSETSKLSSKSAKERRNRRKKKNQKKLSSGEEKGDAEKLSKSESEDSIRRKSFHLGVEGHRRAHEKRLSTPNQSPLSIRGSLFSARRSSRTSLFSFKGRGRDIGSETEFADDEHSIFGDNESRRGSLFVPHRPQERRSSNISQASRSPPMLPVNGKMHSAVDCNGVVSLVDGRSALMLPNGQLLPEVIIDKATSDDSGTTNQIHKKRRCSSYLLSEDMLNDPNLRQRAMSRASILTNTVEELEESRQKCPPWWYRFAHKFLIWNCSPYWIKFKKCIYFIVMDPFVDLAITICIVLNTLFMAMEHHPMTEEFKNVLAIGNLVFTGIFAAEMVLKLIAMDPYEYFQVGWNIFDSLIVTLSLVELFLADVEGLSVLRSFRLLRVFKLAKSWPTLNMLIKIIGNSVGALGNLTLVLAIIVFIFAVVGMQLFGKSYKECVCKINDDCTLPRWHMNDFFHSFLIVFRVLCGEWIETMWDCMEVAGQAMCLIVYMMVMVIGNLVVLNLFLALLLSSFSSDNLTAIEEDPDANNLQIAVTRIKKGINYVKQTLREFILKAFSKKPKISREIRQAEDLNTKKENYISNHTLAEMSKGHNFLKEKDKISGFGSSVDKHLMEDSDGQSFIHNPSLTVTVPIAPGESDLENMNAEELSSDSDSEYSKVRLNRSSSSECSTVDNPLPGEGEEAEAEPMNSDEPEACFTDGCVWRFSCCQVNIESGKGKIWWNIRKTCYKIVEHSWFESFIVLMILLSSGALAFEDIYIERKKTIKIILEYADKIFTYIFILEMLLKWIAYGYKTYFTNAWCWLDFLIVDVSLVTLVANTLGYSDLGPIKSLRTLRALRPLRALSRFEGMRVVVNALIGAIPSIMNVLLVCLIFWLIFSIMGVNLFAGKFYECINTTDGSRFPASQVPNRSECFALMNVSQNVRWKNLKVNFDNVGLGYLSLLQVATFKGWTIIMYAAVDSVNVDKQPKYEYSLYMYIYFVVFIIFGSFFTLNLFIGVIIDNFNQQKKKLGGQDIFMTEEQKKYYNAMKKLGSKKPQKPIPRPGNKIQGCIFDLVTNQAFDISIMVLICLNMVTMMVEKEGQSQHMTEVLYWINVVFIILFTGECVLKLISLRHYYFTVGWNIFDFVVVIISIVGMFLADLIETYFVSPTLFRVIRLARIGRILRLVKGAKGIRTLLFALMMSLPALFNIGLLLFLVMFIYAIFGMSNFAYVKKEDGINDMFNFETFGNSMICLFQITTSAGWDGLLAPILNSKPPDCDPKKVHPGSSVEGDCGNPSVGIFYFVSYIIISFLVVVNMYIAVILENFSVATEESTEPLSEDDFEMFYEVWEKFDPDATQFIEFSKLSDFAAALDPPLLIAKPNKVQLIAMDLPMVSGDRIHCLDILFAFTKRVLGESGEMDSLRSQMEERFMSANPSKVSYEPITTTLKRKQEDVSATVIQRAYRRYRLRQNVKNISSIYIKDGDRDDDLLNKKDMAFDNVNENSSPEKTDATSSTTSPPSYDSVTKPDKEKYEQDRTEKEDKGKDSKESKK
hNav1.5, sequence (Q14524 whole entry, looked up): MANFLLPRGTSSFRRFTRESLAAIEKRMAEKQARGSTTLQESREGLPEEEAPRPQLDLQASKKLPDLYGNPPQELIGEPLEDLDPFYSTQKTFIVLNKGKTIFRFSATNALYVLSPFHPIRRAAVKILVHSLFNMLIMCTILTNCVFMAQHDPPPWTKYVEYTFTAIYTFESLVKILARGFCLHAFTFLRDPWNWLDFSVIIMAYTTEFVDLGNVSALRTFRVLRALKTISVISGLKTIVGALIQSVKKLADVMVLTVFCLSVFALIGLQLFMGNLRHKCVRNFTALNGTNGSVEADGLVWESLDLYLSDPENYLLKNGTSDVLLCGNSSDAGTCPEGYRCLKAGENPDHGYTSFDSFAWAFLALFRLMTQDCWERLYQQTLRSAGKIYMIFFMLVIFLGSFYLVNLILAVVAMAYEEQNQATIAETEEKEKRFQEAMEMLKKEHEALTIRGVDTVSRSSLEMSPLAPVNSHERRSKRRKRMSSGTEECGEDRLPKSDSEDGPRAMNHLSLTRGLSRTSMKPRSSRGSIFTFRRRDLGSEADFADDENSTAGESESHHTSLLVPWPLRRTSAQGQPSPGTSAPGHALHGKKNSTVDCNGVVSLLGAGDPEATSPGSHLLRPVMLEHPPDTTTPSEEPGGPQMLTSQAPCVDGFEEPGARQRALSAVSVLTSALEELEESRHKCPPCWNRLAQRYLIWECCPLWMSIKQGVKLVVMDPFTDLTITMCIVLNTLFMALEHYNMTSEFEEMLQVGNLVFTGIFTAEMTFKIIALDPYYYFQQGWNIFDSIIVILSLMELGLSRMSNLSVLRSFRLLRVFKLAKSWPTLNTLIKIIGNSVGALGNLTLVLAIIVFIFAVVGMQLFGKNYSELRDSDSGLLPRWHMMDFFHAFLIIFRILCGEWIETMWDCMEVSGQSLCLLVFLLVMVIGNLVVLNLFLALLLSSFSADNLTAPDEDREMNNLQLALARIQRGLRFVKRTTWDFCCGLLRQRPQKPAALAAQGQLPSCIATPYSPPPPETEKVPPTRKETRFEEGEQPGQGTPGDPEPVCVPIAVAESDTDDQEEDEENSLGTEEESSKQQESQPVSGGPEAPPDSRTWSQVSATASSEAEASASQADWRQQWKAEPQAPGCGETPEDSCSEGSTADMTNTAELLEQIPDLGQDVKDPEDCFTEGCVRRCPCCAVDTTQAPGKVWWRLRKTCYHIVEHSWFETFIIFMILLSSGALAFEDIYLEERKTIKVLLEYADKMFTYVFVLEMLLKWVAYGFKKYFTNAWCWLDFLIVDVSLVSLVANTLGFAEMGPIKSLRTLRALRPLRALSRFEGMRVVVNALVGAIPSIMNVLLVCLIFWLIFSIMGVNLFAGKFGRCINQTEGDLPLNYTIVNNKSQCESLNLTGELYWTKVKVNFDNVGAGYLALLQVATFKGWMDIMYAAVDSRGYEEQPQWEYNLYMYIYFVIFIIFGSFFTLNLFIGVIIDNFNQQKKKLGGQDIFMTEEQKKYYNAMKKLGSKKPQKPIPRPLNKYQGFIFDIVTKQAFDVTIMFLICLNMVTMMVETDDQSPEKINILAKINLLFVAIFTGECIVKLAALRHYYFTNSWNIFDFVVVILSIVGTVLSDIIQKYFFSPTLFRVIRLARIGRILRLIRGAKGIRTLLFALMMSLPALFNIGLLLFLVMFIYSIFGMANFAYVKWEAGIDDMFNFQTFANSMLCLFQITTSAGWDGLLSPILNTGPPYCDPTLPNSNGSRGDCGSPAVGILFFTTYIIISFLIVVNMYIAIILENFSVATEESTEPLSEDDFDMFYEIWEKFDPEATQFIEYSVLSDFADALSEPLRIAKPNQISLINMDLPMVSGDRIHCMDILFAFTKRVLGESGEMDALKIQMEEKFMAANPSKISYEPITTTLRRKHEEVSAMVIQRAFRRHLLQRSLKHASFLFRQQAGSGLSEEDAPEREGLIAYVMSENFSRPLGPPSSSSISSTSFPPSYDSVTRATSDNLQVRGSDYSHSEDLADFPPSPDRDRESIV

In the case of `CC[C@H](C)[C@@H]1NC(=O)[C@@H]2CSSC[C@@H]3NC(=O)[C@H](C(C)C)NC(=O)[C@H](CC(C)C)NC(=O)[C@H](CC(N)=O)NC(=O)[C@@H]4CCCN4C(=O)[C@H](CCCNC(=N)N)NC(=O)[C@H](CSSC[C@H](NC(=O)[C@@H](N)CC(=O)O)C(=O)N[C@@H](CC(C)C)C(=O)NCC(=O)N[C@@H](Cc4ccccc4)C(=O)N[C@@H](CCCNC(=N)N)C(=O)N[C@@H](CCCNC(=N)N)C(=O)N[C@@H](CCCCN)C(=O)N2)NC(=O)[C@H](CSSC[C@@H](C(=O)N[C@@H](CCCCN)C(=O)N[C@@H](Cc2ccc(O)cc2)C(=O)N[C@H](C(=O)N[C@@H](Cc2ccccc2)C(N)=O)C(C)C)NC(=O)[C@H](Cc2c[nH]c4ccccc24)NC(=O)[C@H](CCCCN)NC(=O)[C@H](Cc2cnc[nH]2)NC(=O)[C@H]([C@@H](C)O)NC(=O)[C@H](CCCNC(=N)N)NC(=O)[C@H](CO)NC3=O)NC(=O)[C@H](CCCCN)NC(=O)[C@H](CC(=O)O)NC(=O)[C@H](CC(N)=O)NC(=O)[C@H](CC(=O)O)NC(=O)[C@@H]2CCCN2C1=O` [SEQ ID NO: 64] (H-DCLGFRRKCIPDNDKCCRPNLVCSRTHKWCKYVF-NH2; disulfide 2-17, 9-23, 16-30), the IC50 in test [1] (setting [4]) came out at 6.98 µM; in test [2] (IWQ Use Nav1.5), 17.6 µM; in test [3] (setting [4]), 5.9 µM.
With `CC[C@@H]1NC(=O)CNC(=O)[C@H](CC(C)C)NC(=O)[C@@H](NC(=O)[C@@H](N)CC(=O)O)CSSC[C@@H]2NC(=O)[C@@H]3CSSC[C@@H](C(=O)N[C@@H](CCCCN)C(=O)N[C@@H](Cc4ccc(O)cc4)C(=O)N[C@H](C(=O)N[C@@H](Cc4ccccc4)C(N)=O)C(C)C)NC(=O)[C@H](Cc4c[nH]c5ccccc45)NC(=O)[C@H](CCC(=O)O)NC(=O)[C@H](Cc4c[nH]cn4)NC(=O)[C@H]([C@@H](C)O)NC(=O)[C@H](CCCNC(=N)N)NC(=O)[C@H](CO)NC(=O)[C@H](CSSC[C@H](NC(=O)[C@H](CCCCN)NC(=O)[C@H](CCCNC(=N)N)NC(=O)[C@H](CCSC)NC1=O)C(=O)N[C@@H]([C@@H](C)CC)C(=O)N1CCC[C@H]1C(=O)N[C@@H](CC(=O)O)C(=O)N[C@@H](CC(N)=O)C(=O)N[C@@H](CC(=O)O)C(=O)N[C@@H](CCCCN)C(=O)N3)NC(=O)[C@H](C(C)C)NC(=O)[C@H](CC(C)C)NC(=O)[C@H](CC(N)=O)NC(=O)[C@@H]1CCCN1C(=O)[C@H](CCCNC(=N)N)NC2=O` [compound 706] (H-DCLG[Abu]MRKCIPDNDKCCRPNLVCSRTHEWCKYVF-NH2; disulfide 2-17, 9-23, 16-30), the IC50 is 1.4 µM in test [1] (use-dependent protocol, hNav1.7); over 50 µM in test [2] (IonWorks Quattro, use-dependent protocol, hNav1.5, read-out: IWQ Use Nav1.5); over 5 µM in test [3] (use-dependent protocol, hNav1.3).
For the compound `CC[C@H](C)[C@@H]1NC(=O)[C@@H]2CSSC[C@@H]3NC(=O)[C@H](C(C)C)NC(=O)[C@H](CC(C)C)NC(=O)[C@H](CC(N)=O)NC(=O)[C@@H]4CCCN4C(=O)[C@H](CCCNC(=N)N)NC(=O)[C@H](CSSC[C@H](NC(=O)[C@@H](N)CC(=O)O)C(=O)N[C@@H](CC(C)C)C(=O)NCC(=O)N[C@@H](Cc4ccccc4)C(=O)N[C@@H](CCSC)C(=O)N[C@@H](CCCNC(=N)N)C(=O)N[C@@H](CCCCN)C(=O)N2)NC(=O)[C@H](CSSC[C@@H](C(=O)N[C@@H](CCCCN)C(=O)N[C@@H](Cc2ccc(O)cc2)C(=O)N[C@H](C(=O)N[C@@H](Cc2ccccc2)C(N)=O)C(C)C)NC(=O)[C@H](Cc2c[nH]c4ccccc24)NC(=O)[C@H](CCCCN)NC(=O)[C@H](Cc2c[nH]cn2)NC(=O)[C@H]([C@@H](C)O)NC(=O)[C@H](CCCNC(=N)N)NC(=O)[C@H](CO)NC3=O)NC(=O)[C@H](CCCCN)NC(=O)[C@H](CC(=O)O)NC(=O)[C@H](CC(N)=O)NC(=O)[C@H](Cc2ccc(O)cc2)NC(=O)[C@@H]2CCCN2C1=O` [compound 197] (H-DCLGFMRKCIPYNDKCCRPNLVCSRTHKWCKYVF-NH2; disulfide 2-17, 9-23, 16-30), the IC50 worked out at 0.098 µM in test [1] (Use); 6.92 µM in test [2] (IonWorks Quattro, Use, read-out: IWQ Use Nav1.5); 0.042 µM in test [3] (Use).
In the case of `CC[C@H](C)[C@@H]1NC(=O)[C@@H]2CSSC[C@@H]3NC(=O)[C@H](C(C)C)NC(=O)[C@H](CC(C)C)NC(=O)[C@H](CC(N)=O)NC(=O)[C@@H]4CCCN4C(=O)[C@H](CCCNC(=N)N)NC(=O)[C@H](CSSC[C@H](NC(=O)[C@@H](N)CC(=O)O)C(=O)N[C@@H](CC(C)C)C(=O)NCC(=O)N[C@@H](Cc4ccccc4)C(=O)N[C@@H](CCSC)C(=O)N[C@@H](CCCNC(=N)N)C(=O)N[C@@H](CCCCN)C(=O)N2)NC(=O)[C@H](CSSC[C@@H](C(=O)N[C@@H](CCCCN)C(=O)NCC(=O)N[C@H](C(=O)N[C@@H](Cc2ccccc2)C(N)=O)C(C)C)NC(=O)[C@H](Cc2c[nH]c4ccccc24)NC(=O)[C@H](CCCCN)NC(=O)[C@H](Cc2c[nH]cn2)NC(=O)[C@H]([C@@H](C)O)NC(=O)[C@H](CCCNC(=N)N)NC(=O)[C@H](CO)NC3=O)NC(=O)[C@H](CCCCN)NC(=O)[C@H](CC(=O)O)NC(=O)[C@H](CC(N)=O)NC(=O)[C@H](CC(=O)O)NC(=O)[C@@H]2CCCN2C1=O` [compound 378] (H-DCLGFMRKCIPDNDKCCRPNLVCSRTHKWCKGVF-NH2; disulfide 2-17, 9-23, 16-30), the IC50 came out at 0.71 µM in test [1] (Table 25, use, […]); 11.2 µM in test [2] (Table 25, IonWorks Quattro, use, […], read-out: IWQ Use Nav1.5); 0.62 µM in test [3] (Table 25, use, […]).
For the compound `CC[C@H](C)[C@@H]1NC(=O)[C@@H]2CSSC[C@@H]3NC(=O)[C@H](C(C)C)NC(=O)[C@H](CC(C)C)NC(=O)[C@H](CC(N)=O)NC(=O)[C@@H]4CCCN4C(=O)[C@H](CCCNC(=N)N)NC(=O)[C@H](CSSC[C@H](NC(=O)[C@@H](N)CC(=O)O)C(=O)N[C@@H](CC(C)C)C(=O)NCC(=O)N[C@@H](C)C(=O)N[C@@H](CCSC)C(=O)N[C@@H](CCCNC(=N)N)C(=O)N[C@@H](CCCCN)C(=O)N2)NC(=O)[C@H](CSSC[C@@H](C(=O)N[C@@H](CCCCN)C(=O)N[C@@H](Cc2ccc(O)cc2)C(=O)N[C@H](C(=O)N[C@@H](Cc2ccccc2)C(N)=O)C(C)C)NC(=O)[C@H](Cc2c[nH]c4ccccc24)NC(=O)[C@H](CCCCN)NC(=O)[C@H](Cc2c[nH]cn2)NC(=O)[C@H]([C@@H](C)O)NC(=O)[C@H](CCCNC(=N)N)NC(=O)[C@H](CO)NC3=O)NC(=O)[C@H](CCC(=O)O)NC(=O)[C@H](CC(=O)O)NC(=O)[C@H](CC(N)=O)NC(=O)[C@H](CC(=O)O)NC(=O)[C@@H]2CCCN2C1=O` [compound 439] (H-DCLGAMRKCIPDNDECCRPNLVCSRTHKWCKYVF-NH2; disulfide 2-17, 9-23, 16-30), the IC50 came to 2.41 µM in test [1] (use-dependent block, hNav1.7); 10.8 µM in test [2] (setting [5]); 4.8 µM in test [3] (use-dependent block, hNav1.3).
As to `CC[C@H](C)[C@@H]1NC(=O)[C@@H]2CSSC[C@@H]3NC(=O)[C@H](C(C)C)NC(=O)[C@H](CC(C)C)NC(=O)[C@H](CC(N)=O)NC(=O)[C@@H]4CCCN4C(=O)[C@H](CCCNC(=N)N)NC(=O)[C@H](CSSC[C@H](NC(=O)[C@@H](N)CC(=O)O)C(=O)N[C@@H](CC(C)C)C(=O)NCC(=O)N[C@@H](Cc4ccccc4)C(=O)N[C@@H](CCSC)C(=O)N[C@@H](CCCNC(=N)N)C(=O)N[C@@H](CCCCN)C(=O)N2)NC(=O)[C@H](CSSC[C@@H](C(=O)N[C@@H](CCCCN)C(=O)N[C@@H](Cc2ccc(O)cc2)C(=O)N[C@H](C(=O)N[C@@H](Cc2ccccc2)C(N)=O)c2ccccc2)NC(=O)[C@H](Cc2c[nH]c4ccccc24)NC(=O)[C@H](CCCCN)NC(=O)[C@H](Cc2c[nH]cn2)NC(=O)[C@H]([C@@H](C)O)NC(=O)[C@H](CCCNC(=N)N)NC(=O)[C@H](CO)NC3=O)NC(=O)[C@H](CCCCN)NC(=O)[C@H](CC(=O)O)NC(=O)[C@H](CC(N)=O)NC(=O)[C@H](CC(=O)O)NC(=O)[C@@H]2CCCN2C1=O` [compound 393] (H-DCLGFMRKCIPDNDKCCRPNLVCSRTHKWCKY[Phg]F-NH2; disulfide 2-17, 9-23, 16-30), the IC50 in test [1] (Table 26, use, […]) turned out to be 0.02 µM; in test [2] (Table 26, IonWorks Quattro, use, […], read-out: IWQ Use Nav1.5), 7.63 µM; in test [3] (Table 26, use, […]) it was 0.04 µM.
Consider `CC[C@H](C)[C@@H]1NC(=O)[C@@H]2CSSC[C@@H]3NC(=O)[C@H](C(C)C)NC(=O)[C@H](CC(C)C)NC(=O)[C@H](CC(N)=O)NC(=O)[C@@H]4CCCN4C(=O)[C@H](CCCNC(=N)N)NC(=O)[C@H](CSSC[C@H](NC(=O)[C@@H](N)CC(=O)O)C(=O)N[C@@H](CC(C)C)C(=O)NCC(=O)N[C@@H](C)C(=O)N[C@@H](CCSC)C(=O)N[C@@H](CCCNC(=N)N)C(=O)N[C@@H](CCCCN)C(=O)N2)NC(=O)[C@H](CSSC[C@@H](C(=O)N[C@@H](CCCCN)C(=O)N[C@@H](Cc2ccc(O)cc2)C(=O)N[C@H](C(=O)N[C@@H](Cc2ccccc2)C(N)=O)C(C)C)NC(=O)[C@H](Cc2c[nH]c4ccccc24)NC(=O)[C@H](CCCCNC(N)=O)NC(=O)[C@H](Cc2c[nH]cn2)NC(=O)[C@H]([C@@H](C)O)NC(=O)[C@H](CCCNC(=N)N)NC(=O)[C@H](CO)NC3=O)NC(=O)[C@H](CCCCN)NC(=O)[C@H](CC(=O)O)NC(=O)[C@H](CC(N)=O)NC(=O)[C@H](CC(=O)O)NC(=O)[C@@H]2CCCN2C1=O` [compound 749] (H-DCLGAMRKCIPDNDKCCRPNLVCSRTH[hCit]WCKYVF-NH2; disulfide 2-17, 9-23, 16-30), for which the IC50 in test [1] (use-dependent block, hNav1.7) was 0.79 µM; in test [2] (setting [5]), 20.3 µM; in test [3] (use-dependent block, hNav1.3) it was 2.3 µM.

The values are drawn from US9340590B2 (priority 2011, dated 2016).
